US9884063B2, “Amido-substituted azole compounds” (Bayer Pharma Aktiengesellschaft, priority 2014, dated 2018)

How the values were obtained:
TNKS1 = molecular target: T1, TNKS1 (Homo sapiens, UniProt O95271); assay: Modified TNKS1 Assay 2 (auto-parsylation, [3H]-NAD+ SPA); type: biochemical; conditions: 6 nM TNKS1, 96 well
T1 sequence (O95271 1-1327): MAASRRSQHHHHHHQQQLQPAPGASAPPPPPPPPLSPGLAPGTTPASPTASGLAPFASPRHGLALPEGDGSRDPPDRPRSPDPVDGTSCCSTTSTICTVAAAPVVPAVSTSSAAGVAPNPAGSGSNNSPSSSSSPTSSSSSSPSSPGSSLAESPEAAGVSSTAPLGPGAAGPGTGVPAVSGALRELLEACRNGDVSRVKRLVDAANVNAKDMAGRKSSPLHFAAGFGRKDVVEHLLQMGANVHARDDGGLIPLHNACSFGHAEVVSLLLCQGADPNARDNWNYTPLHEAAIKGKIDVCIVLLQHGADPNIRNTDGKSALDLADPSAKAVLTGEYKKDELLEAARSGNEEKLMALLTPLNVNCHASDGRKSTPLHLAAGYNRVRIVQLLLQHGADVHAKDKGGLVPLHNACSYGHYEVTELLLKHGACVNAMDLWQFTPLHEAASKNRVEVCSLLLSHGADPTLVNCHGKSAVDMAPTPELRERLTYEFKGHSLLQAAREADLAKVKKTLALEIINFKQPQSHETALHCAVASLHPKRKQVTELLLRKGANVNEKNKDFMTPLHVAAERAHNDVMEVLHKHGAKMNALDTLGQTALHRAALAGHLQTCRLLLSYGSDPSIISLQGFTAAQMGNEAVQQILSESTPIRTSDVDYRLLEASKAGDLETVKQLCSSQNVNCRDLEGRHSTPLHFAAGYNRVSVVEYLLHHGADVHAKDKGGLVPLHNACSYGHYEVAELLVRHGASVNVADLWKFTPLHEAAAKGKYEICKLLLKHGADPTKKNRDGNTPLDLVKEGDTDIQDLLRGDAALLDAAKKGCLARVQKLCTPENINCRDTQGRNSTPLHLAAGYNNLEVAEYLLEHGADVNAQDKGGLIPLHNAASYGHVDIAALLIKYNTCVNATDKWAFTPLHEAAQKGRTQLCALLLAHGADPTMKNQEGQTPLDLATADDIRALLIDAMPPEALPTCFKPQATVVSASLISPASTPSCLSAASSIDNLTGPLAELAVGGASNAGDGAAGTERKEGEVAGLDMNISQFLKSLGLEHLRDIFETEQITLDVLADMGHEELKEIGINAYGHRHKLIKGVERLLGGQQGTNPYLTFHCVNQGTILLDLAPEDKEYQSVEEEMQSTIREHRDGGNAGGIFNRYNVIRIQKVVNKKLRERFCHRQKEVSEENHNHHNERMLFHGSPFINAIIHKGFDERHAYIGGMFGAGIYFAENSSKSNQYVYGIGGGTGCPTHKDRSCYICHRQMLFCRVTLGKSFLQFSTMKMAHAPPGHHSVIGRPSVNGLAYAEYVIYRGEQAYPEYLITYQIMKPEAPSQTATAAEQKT

[1] = tested on: wildtype Wnt signaling cascade; assay: HEK293 TOP Assay (Super TopFlash luciferase reporter, Wnt-3a stimulated); type: cell-based; conditions: Homo sapiens, HEK293, 16 h, HEK293 TOP reporter cell line, Wnt-3a at EC50, 16 hours incubation, compound dilution series 50 μM to 15 nM
Procedure, shortened: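 Compounds (50 μM down to 15 nM, 3.16-fold steps, in CAFTY buffer pH 7.4, 2 mM Ca2+, 0.01% BSA) tested in parallel on TOP and FOP HEK293 reporter lines to define selective wildtype Wnt inhibition. Pathway driven by recombinant human Wnt-3a applied at 2500–5 ng/ml in two-fold dilutions.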

| SMILES | IC50 (TNKS1) | IC50 [1] |
| --- | --- | --- |
| O=C(Nc1ccc(NC(=O)c2ocnc2C(=O)NCCN2CCC(F)(F)CC2)cc1)c1ccc(F)cc1Cl [Example 218, N^5-{4-[(2-chloro-4-fluorobenzoyl)amino]phenyl}-N^4-[2-(4,4-difluoropiperidin-1-yl)ethyl]-1,3-oxazole-4,5-dicarboxamide] | 70 nM | 1610 nM |
| CNC(=O)c1nc[nH]c1C(=O)Nc1ccc(NC(=O)c2ccccc2C(F)F)cc1 [Example 241, N^5-(4-{[2-(difluoromethyl)benzoyl]amino}phenyl)-N^4-methyl-1H-imidazole-4,5-dicarboxamide] | 2500 nM | 1900 nM |
| CNC(=O)c1nc[nH]c1C(=O)Nc1ccc(NC(=O)c2ccccc2OC(F)(F)F)cc1 [Example 243, N^4-methyl-N^5-(4-{[2-(trifluoromethoxy)benzoyl]amino}phenyl)-1H-imidazole-4,5-dicarboxamide] | > 10000 nM | 11500 nM |
| CNC(=O)c1nc[nH]c1C(=O)Nc1ccc(NC(=O)c2ccc(C)cc2Cl)cc1 [Example 244, N^5-{4-[(2-chloro-4-methylbenzoyl)amino]phenyl}-N^4-methyl-1H-imidazole-4,5-dicarboxamide] | 40 nM | 170 nM |
| CNC(=O)c1nc[nH]c1C(=O)Nc1ccc(NC(=O)c2ncccc2Cl)cc1 [Example 247, N^5-(4-{[(3-chloropyridin-2-yl)carbonyl]amino}phenyl)-N^4-methyl-1H-imidazole-4,5-dicarboxamide] | 910 nM | 400 nM |
| CNC(=O)c1nc[nH]c1C(=O)Nc1ccc(NC(=O)c2cc(OC)ccc2Cl)cc1 [Example 248, N^5-{4-[(2-chloro-5-methoxybenzoyl)amino]phenyl}-N^4-methyl-1H-imidazole-4,5-dicarboxamide] | 240 nM | 850 nM |
| CCOc1ccc(C(=O)Nc2ccc(NC(=O)c3[nH]cnc3C(=O)NC)cc2)c(Cl)c1 [Example 250, N^5-{4-[(2-chloro-4-ethoxybenzoyl)amino]phenyl}-N^4-methyl-1H-imidazole-4,5-dicarboxamide] | 230 nM | 920 nM |
| CNC(=O)c1nc[nH]c1C(=O)Nc1ccc(NC(=O)c2ccc(OC(F)(F)F)cc2F)cc1 [Example 253, N^5-(4-{[2-fluoro-4-(trifluoromethoxy)benzoyl]amino}phenyl)-N^4-methyl-1H-imidazole-4,5-dicarboxamide] | > 10000 nM | 12000 nM |
| CNC(=O)c1nc[nH]c1C(=O)Nc1ccc(NC(=O)c2cnccc2Cl)cc1 [Example 254, N^5-(4-{[(4-chloropyridin-3-yl)carbonyl]amino}phenyl)-N^4-methyl-1H-imidazole-4,5-dicarboxamide] | 570 nM | 750 nM |
| CCS(=N)(=O)c1ccc(C(=O)Nc2ccc(NC(=O)c3[nH]cnc3C(=O)NC)cc2)c(Cl)c1 (stereo not shown) [Example 255, N^5-(4-{[2-chloro-4-(S-ethylsulfonimidoyl)benzoyl]amino}phenyl)-N^4-methyl-1H-imidazole-4,5-dicarboxamide] | 680 nM | 1240 nM |
| CCNC(=O)c1nc[nH]c1C(=O)Nc1ccc(NC(=O)c2ccccc2S(C)(=O)=O)cc1 [Example 257, N^4-ethyl-N^5-(4-{[2-(methylsulfonyl)benzoyl]amino}phenyl)-1H-imidazole-4,5-dicarboxamide] | 7800 nM | 2600 nM |

The remaining lines, values ahead:

| IC50 (TNKS1) | IC50 [1] | SMILES |
| --- | --- | --- |
| 4 nM | 50 nM | O=C(Nc1ccc(NC(=O)c2nc[nH]c2C(=O)NCCN2CCCC(F)C2)cc1)c1ccc(F)cc1Cl (stereo not shown) [Example 226, N^4-{4-[(2-chloro-4-fluorobenzoyl)amino]phenyl}-N^5-[2-(3-fluoropiperidin-1-yl)ethyl]-1H-imidazole-4,5-dicarboxamide] |
| 30 nM | 420 nM | O=C(Nc1ccc(NC(=O)c2nc[nH]c2C(=O)NC2CCOC2)cc1)c1ccc(F)cc1Cl (stereo not shown) [Example 236, N^4-{4-[(2-chloro-4-fluorobenzoyl)amino]phenyl}-N^5-(tetrahydrofuran-3-yl)-1H-imidazole-4,5-dicarboxamide] |
| > 10000 nM | 46500 nM | CNC(=O)c1nc[nH]c1C(=O)Nc1ccc(NC(=O)c2ccccc2O)cc1 [Example 239, N^5-{4-[(2-hydroxybenzoyl)amino]phenyl}-N^4-methyl-1H-imidazole-4,5-dicarboxamide] |
| 8 nM | 80 nM | CNC(=O)c1nc[nH]c1C(=O)Nc1ccc(NC(=O)c2cc(OC)c(OC)cc2Cl)cc1 [Example 240, N^5-{4-[(2-chloro-4,5-dimethoxybenzoyl)amino]phenyl}-N^4-methyl-1H-imidazole-4,5-dicarboxamide] |
| 20 nM | 80 nM | CNC(=O)c1nc[nH]c1C(=O)Nc1ccc(NC(=O)c2cc(F)c(F)cc2Cl)cc1 [Example 242, N^5-{4-[(2-chloro-4,5-difluorobenzoyl)amino]phenyl}-N^4-methyl-1H-imidazole-4,5-dicarboxamide] |
| > 10000 nM | 7900 nM | CNC(=O)c1nc[nH]c1C(=O)Nc1ccc(NC(=O)c2ccc(OC(F)F)cc2F)cc1 [Example 251, N^5-(4-{[4-(difluoromethoxy)-2-fluorobenzoyl]amino}phenyl)-N^4-methyl-1H-imidazole-4,5-dicarboxamide] |
| 9300 nM | 4050 nM | CNC(=O)c1nc[nH]c1C(=O)Nc1ccc(NC(=O)c2cccc(OC)c2Cl)cc1 [Example 252, N^5-{4-[(2-chloro-3-methoxybenzoyl)amino]phenyl}-N^4-methyl-1H-imidazole-4,5-dicarboxamide] |
| 9 nM | 900 nM | CCS(=N)(=O)c1ccc(C(=O)Nc2ccc(NC(=O)c3[nH]cnc3C(=O)NCCN3CCCCC3)cc2)c(Cl)c1 (stereo not shown) [Example 256, N^5-(4-{[2-chloro-4-(S-ethylsulfonimidoyl)benzoyl]amino}phenyl)-N^4-[2-(piperidin-1-yl)ethyl]-1H-imidazole-4,5-dicarboxamide] |
| 300 nM | 880 nM | CCNC(=O)c1nc[nH]c1C(=O)Nc1ccc(NC(=O)c2ccc(OCC)cc2Cl)cc1 [Example 259, N^5-{4-[(2-chloro-4-ethoxybenzoyl)amino]phenyl}-N^4-ethyl-1H-imidazole-4,5-dicarboxamide] |
